We go through nine compounds from patent US20250195484A1, “CEREBLON LIGANDS AND USES THEREOF” (priority 2022, published 2025).

What all share (format): cell-based
The target of one experiment is T1, CBP (Homo sapiens, UniProt Q92793).
T1 construct: endogenous in cells; host or cells: 22Rv1
Briefly: CBP degradation, western blot, 22Rv1. To be noted: 22Rv1, 5 h. As for the experimental part: (§1) WesternT Blot Analysis. Western blot analysis was performed essentially as described previously. The cells treated with indicated compounds were lysed in Radioimmunoprecipitation Assay Protein Lysis and Extraction Buffer (25 mmol/L Tris.HCl, pH 7.6, 150 mmol/L NaCl, 1% Nonidet P-40, 1% sodium deoxycholate, and 0.1% sodium dodecyl sulfate) containing proteinase inhibitor cocktail (Roche Diagnostics, Mannheim, Germany). Equal amounts of total protein were electrophoresed through 10% SDS-polyacrylamide gels after determination of protein concentration by BCA assay (Fisher Scientific, Pittsburgh, PA). The separated protein bands were transferred onto PVDF membranes (GE Healthcare Life Sciences, Marlborough, MA) and blotted against different antibodies, as indicated. The blots were scanned, and the band intensities were quantified using GelQuant.NET software provided by biochemlabsolutions.com. The relative mean intensity of target proteins was expressed after normalization to the intensity of glyceraldehyde-3-phosphate dehydrogenase bands.

Another experiment has as its target T2, P300 (Homo sapiens, UniProt Q09472).
T2 construct: endogenous in cells; host or cells: 22Rv1
The experiment can be described thus: P300 degradation, western blot, 22Rv1. To be noted: 22Rv1, 5 h. On the procedure:
as §1

The next experiment relates to MOLM-16. The experiment can be described thus: Cell viability assay (CellTiter-Glo 2.0), MOLM-16. To be noted: MOLM16; MOLM-16 cells.
The target of a further experiment is T3, STAT3 (Homo sapiens, UniProt P40763).
T3 construct: host or cells: HeLa (STAT3-HiBiT CRISPR knock-in clone)
T3 sequence (P40763 whole entry): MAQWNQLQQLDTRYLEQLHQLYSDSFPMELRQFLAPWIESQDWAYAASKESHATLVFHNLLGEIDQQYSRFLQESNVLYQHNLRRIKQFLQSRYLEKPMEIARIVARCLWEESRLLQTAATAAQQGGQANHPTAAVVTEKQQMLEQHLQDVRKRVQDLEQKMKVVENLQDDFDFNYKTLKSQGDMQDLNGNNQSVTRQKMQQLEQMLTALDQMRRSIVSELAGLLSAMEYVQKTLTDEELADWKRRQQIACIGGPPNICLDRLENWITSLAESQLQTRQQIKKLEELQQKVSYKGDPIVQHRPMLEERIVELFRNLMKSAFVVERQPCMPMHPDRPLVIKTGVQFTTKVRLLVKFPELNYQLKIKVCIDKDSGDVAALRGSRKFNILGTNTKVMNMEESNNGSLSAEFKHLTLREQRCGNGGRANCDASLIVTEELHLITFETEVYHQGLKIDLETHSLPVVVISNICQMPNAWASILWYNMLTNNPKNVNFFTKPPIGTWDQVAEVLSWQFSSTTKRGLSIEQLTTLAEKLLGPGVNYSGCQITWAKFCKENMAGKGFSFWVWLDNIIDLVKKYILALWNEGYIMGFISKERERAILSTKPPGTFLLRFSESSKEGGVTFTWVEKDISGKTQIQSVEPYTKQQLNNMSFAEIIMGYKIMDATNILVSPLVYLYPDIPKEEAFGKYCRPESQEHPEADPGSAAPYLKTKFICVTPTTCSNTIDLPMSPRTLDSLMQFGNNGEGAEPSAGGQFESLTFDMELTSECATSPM
The experiment can be described thus: STAT3 degradation HiBiT assay (STAT3-HIBIT KI HeLa). As to conditions: STAT3-HIBIT KI HeLa cells, 24 hours. As for the experimental part:
STAT3-HIBIT KI HeLa cell line was purchased from Promega. This cell line is a clone created by using CRISPR-Cas9 to fuse HiBIT to the 3′ end of STAT3 in HeLa cells. DMEM medium and FBS were purchased from Gibco/Thermo Fisher Scientific. STAT3 degradation was determined based on quantification of luminescent signal using Nano-Glo HiBIT Lytic Detection System. In a typical procedure, cells seeded at 20000 cells per well in 96-well white plates (Corning) were incubated with serially diluted compounds for 24 hours at 37° C. with 5% CO2. At the end of treatment, Nano-Glo HiBIT Lytic Detection reagents was added to the wells and luminescence was acquired on TECAN PSARK plate reader. Untreated cells were used as control. Data points were fit with a four-parameter equation to generate a concentration-response curve. IC50 values were calculated using a nonlinear regression analysis of the mean±SD from triplicate.

In another experiment the test system is SU-DHL-1. Briefly: Cell viability assay (CellTiter-Glo 2.0), SU-DHL-1. To be noted: Homo sapiens, 96 h; SU-DHL-1 cells, 4 days. As for the experimental part:
SU-DHL-1 and SUP-M2 cell viability was determined by CellTiter-Glo 2.0 Cell Viability Assay (Promega). […] In a typical procedure, cells seeded at 1000 cells per well in 384-well white plates (Corning) were incubated with serially diluted compounds for 4 days at 37° C. with 5% CO2. At the end of treatment, CellTiter-Glo 2.0 was added to the wells and luminescence was acquired on TECAN PSARK plate reader. Untreated cells were used as control. Data points were fit with a four-parameter equation to generate a concentration-response curve. IC50 values were calculated using a nonlinear regression analysis of the mean±SD from triplicate.

Structures are written as SMILES.

T2 sequence (Q09472 whole entry): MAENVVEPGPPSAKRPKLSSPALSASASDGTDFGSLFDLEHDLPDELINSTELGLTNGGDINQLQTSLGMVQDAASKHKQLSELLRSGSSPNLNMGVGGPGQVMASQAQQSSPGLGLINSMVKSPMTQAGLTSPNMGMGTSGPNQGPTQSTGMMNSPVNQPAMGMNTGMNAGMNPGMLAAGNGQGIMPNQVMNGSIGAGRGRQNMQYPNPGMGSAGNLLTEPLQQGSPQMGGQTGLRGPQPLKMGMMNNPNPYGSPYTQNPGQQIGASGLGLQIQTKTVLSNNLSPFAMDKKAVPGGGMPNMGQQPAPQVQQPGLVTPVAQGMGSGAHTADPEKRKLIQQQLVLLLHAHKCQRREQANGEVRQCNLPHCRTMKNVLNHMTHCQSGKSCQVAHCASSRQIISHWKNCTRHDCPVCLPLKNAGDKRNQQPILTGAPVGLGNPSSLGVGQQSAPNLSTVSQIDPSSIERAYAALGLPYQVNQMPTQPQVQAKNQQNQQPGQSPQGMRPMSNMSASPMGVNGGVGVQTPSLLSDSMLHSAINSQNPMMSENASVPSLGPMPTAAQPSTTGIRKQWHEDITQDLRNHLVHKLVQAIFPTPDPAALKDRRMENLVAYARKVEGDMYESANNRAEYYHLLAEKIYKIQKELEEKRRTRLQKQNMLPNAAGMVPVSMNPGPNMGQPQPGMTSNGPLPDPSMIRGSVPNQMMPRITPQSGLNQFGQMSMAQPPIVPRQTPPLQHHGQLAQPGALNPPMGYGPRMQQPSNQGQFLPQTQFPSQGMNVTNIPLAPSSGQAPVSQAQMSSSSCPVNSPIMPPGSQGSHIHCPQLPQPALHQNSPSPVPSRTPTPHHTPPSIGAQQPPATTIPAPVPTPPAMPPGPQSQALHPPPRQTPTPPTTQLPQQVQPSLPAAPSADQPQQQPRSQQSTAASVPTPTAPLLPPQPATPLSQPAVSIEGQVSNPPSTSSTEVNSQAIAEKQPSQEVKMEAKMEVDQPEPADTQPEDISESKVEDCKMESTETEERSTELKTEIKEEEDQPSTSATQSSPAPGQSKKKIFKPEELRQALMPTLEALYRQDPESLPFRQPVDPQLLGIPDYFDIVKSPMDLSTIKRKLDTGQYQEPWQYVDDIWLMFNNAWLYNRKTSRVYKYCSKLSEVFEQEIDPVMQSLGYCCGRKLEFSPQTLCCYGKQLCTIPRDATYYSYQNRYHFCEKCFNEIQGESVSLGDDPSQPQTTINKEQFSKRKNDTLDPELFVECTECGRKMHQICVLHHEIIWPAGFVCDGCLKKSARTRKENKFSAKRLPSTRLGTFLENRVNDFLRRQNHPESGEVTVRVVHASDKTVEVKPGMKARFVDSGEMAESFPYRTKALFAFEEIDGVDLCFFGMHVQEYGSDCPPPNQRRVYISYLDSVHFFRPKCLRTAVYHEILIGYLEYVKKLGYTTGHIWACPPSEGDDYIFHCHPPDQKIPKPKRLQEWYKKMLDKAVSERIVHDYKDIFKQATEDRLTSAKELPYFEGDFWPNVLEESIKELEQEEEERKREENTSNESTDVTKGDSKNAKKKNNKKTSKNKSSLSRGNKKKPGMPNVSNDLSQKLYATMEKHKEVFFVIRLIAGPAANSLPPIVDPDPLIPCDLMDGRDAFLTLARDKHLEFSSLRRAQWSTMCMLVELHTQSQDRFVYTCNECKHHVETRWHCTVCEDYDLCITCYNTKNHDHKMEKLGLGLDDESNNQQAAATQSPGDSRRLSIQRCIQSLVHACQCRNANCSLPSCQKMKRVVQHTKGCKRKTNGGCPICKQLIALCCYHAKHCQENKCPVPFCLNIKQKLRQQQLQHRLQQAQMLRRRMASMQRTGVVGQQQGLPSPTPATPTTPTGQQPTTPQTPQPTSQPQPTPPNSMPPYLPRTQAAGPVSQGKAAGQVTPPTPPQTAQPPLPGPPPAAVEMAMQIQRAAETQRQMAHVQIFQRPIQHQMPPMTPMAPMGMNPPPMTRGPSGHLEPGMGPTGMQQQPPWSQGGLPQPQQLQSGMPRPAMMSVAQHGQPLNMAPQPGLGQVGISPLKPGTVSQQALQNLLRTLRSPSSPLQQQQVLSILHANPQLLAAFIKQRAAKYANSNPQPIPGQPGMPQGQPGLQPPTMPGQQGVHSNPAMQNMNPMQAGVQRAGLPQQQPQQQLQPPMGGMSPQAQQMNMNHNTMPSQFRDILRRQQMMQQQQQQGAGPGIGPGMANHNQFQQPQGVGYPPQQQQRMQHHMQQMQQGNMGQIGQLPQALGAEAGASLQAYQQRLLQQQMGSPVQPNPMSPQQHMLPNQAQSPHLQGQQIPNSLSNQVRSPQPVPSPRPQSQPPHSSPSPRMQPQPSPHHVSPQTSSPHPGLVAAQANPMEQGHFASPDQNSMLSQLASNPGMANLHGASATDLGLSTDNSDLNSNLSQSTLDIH

Consider `CC(=O)N1CCc2c(c(N3CCCc4cc(-c5cnn(C)c5)c(C(F)F)cc43)nn2[C@H]2CC[C@H](CN3CCC4(CC3)COc3c4ccc4c3CN([C@H]3CCC(=O)NC3=O)C4=O)CC2)C1` [CPD-004, (S)-3-(1′-(((1r,4S)-4-(5-acetyl-3-(7-(difluoromethyl)-6-(1-methyl-1H-pyrazol-4-yl)-3,4-dihydroquinolin-1(2H)-yl)-4,5,6,7-tetrahydro-1H-pyrazolo[4,3-c]pyridin-1-yl)cyclohexyl)methyl)-6-oxo-6,8-dihydro-2H,7H-spiro[furo[2,3-e]isoindole-3,4′-piperidin]-7-yl)piperidine-2,6-dione], for which, at CBP, the “CBP Degradation DCmax” value is “A (A (≥90%))” and the DC50 was less than 0.0001 µM. Moreover, at P300, the DC50 is less than 0.0001 µM and the “P300 Degradation DCmax” value is listed as “A (A (≥90%))”.
`CC(=O)N1CCc2c(c(N3CCCc4cc(-c5cnn(C)c5)c(C(F)F)cc43)nn2[C@H]2CC[C@H](C(=O)N3CCC4(CC3)COc3c4ccc4c3CN([C@H]3CCC(=O)NC3=O)C4=O)CC2)C1` [CPD-005, (S)-3-(1′-((1r,4S)-4-(5-acetyl-3-(7-(difluoromethyl)-6-(1-methyl-1H-pyrazol-4-yl)-3,4-dihydroquinolin-1(2H)-yl)-4,5,6,7-tetrahydro-1H-pyrazolo[4,3-c]pyridin-1-yl)cyclohexane-1-carbonyl)-6-oxo-6,8-dihydro-2H,7H-spiro[furo[2,3-e]isoindole-3,4′-piperidin]-7-yl)piperidine-2,6-dione]: at CBP, the “CBP Degradation DCmax” value was “A (A (≥90%))” and the DC50 was less than 0.0001 µM. Moreover, at P300, the DC50 is less than 0.0001 µM and the “P300 Degradation DCmax” value is “A (A (≥90%))”.
For `CC(=O)N1CCc2c(c(N3CCCc4cc(-c5cnn(C)c5)c(C(F)F)cc43)nn2[C@H]2CC[C@@H](C(=O)N3CCC4(CC3)COc3c4ccc4c3CN([C@H]3CCC(=O)NC3=O)C4=O)CC2)C1` [CPD-006, (S)-3-(1′-((1s,4R)-4-(5-acetyl-3-(7-(difluoromethyl)-6-(1-methyl-1H-pyrazol-4-yl)-3,4-dihydroquinolin-1(2H)-yl)-4,5,6,7-tetrahydro-1H-pyrazolo[4,3-c]pyridin-1-yl)cyclohexane-1-carbonyl)-6-oxo-6,8-dihydro-2H,7H-spiro[furo[2,3-e]isoindole-3,4′-piperidin]-7-yl)piperidine-2,6-dione], at CBP, the “CBP Degradation DCmax” value is listed as “A (A (≥90%))” and the DC50 is less than 0.0001 µM. For the same compound, on P300, the DC50 is 0.0001 to 0.001 µM and the “P300 Degradation DCmax” value is reported as “A (A (≥90%))”.
`CS(=O)(=O)c1cccc(OC[C@H](CCC(N)=O)NC(=O)[C@@H]2CC[C@@H]3CCN(C(=O)CCN4CCC5(CC4)COc4c5ccc5c4CN([C@H]4CCC(=O)NC4=O)C5=O)C[C@H](NC(=O)c4cc5cc(C(F)(F)P(=O)(O)O)ccc5s4)C(=O)N32)c1` [STD 69, ((2-(((5S,8S,10aR)-8-(((S)-5-amino-1-(3-(methylsulfonyl)phenoxy)-5-oxopentan-2-yl)carbamoyl)-3-(3-(7-((S)-2,6-dioxopiperidin-3-yl)-6-oxo-7,8-dihydro-2H,6H-spiro[furo[2,3-e]isoindole-3,4′-piperidin]-1′-yl)propanoyl)-6-oxodecahydropyrrolo[1,2-a][1,5]diazocin-5-yl)carbamoyl)benzo[b]thiophen-5-yl)difluoromethyl)phosphonic acid] returned an IC50 in the experiment on MOLM-16 of 1 to 10 µM. At STAT3, the DC50 lay within 1 to 10 µM and the Dmax was in the range of 60 to 80%. Further, in the experiment with SU-DHL-1, the IC50 lay in the range of 1 to 10 µM.
In the experiment with MOLM-16, `NC(=O)CC[C@H](NC(=O)[C@@H]1CC[C@@H]2CCN(C(=O)CCCCN3CCC4(CC3)COc3c4ccc4c3CN([C@H]3CCC(=O)NC3=O)C4=O)C[C@H](NC(=O)c3cc4cc(C(F)(F)P(=O)(O)O)ccc4s3)C(=O)N21)C(=O)NCc1cccc(Cl)c1` [STD 70, ((2-(((5S,8S,10aR)-8-(((S)-5-amino-1-((3-chlorobenzyl)amino)-1,5-dioxopentan-2-yl)carbamoyl)-3-(5-(7-((S)-2,6-dioxopiperidin-3-yl)-6-oxo-7,8-dihydro-2H,6H-spiro[furo[2,3-e]isoindole-3,4′-piperidin]-1′-yl)pentanoyl)-6-oxodecahydropyrrolo[1,2-a][1,5]diazocin-5-yl)carbamoyl)benzo[b]thiophen-5-yl)difluoromethyl)phosphonic acid] had an IC50 of 1 to 10 µM. On STAT3, the DC50 was 0.1 to 1 µM and the Dmax was no less than 80%. Also, the IC50 in the experiment with SU-DHL-1 fell in the range of 1 to 10 µM.
Consider `CS(=O)(=O)c1cccc(OC[C@H](CCC(N)=O)NC(=O)[C@@H]2CC[C@@H]3CCN(C(=O)CCCCN4CCC5(CC4)COc4c5ccc5c4CN([C@H]4CCC(=O)NC4=O)C5=O)C[C@H](NC(=O)c4cc5cc(C(F)(F)P(=O)(O)O)ccc5s4)C(=O)N32)c1` [STD 71, ((2-(((5S,8S,10aR)-8-(((S)-5-amino-1-(3-(methylsulfonyl)phenoxy)-5-oxopentan-2-yl)carbamoyl)-3-(5-(7-((S)-2,6-dioxopiperidin-3-yl)-6-oxo-7,8-dihydro-2H,6H-spiro[furo[2,3-e]isoindole-3,4′-piperidin]-1′-yl)pentanoyl)-6-oxodecahydropyrrolo[1,2-a][1,5]diazocin-5-yl)carbamoyl)benzo[b]thiophen-5-yl)difluoromethyl)phosphonic acid], for which the IC50 with MOLM-16 is 0.1 to 1 µM; with SU-DHL-1 it was 1 to 10 µM. At STAT3, the DC50 lay in the range of 0.1 to 1 µM. This compound returned a Dmax on STAT3 of no less than 80%.
In the case of `CC(C)S(=O)(=O)c1ccc(CNC(=O)[C@H](CCC(N)=O)NC(=O)[C@@H]2CC[C@@H]3CCN(C(=O)CCCCN4CCC5(CC4)COc4c5ccc5c4CN([C@H]4CCC(=O)NC4=O)C5=O)C[C@H](NC(=O)c4cc5cc(C(F)(F)P(=O)(O)O)ccc5s4)C(=O)N32)cc1` [STD 80, ((2-(((5S,8S,10aR)-8-(((S)-5-amino-1-((4-(isopropylsulfonyl)benzyl)amino)-1,5-dioxopentan-2-yl)carbamoyl)-3-(5-(7-((S)-2,6-dioxopiperidin-3-yl)-6-oxo-7,8-dihydro-2H,6H-spiro[furo[2,3-e]isoindole-3,4′-piperidin]-1′-yl)pentanoyl)-6-oxodecahydropyrrolo[1,2-a][1,5]diazocin-5-yl)carbamoyl)benzo[b]thiophen-5-yl)difluoromethyl)phosphonic acid], the IC50 was 0.1 to 1 µM in the experiment with MOLM-16 and 1 to 10 µM with SU-DHL-1. The DC50 on STAT3 fell in the range of 0.1 to 1 µM. At STAT3, this compound showed a Dmax of no less than 80%.
For `CS(=O)(=O)c1cccc(OC[C@H](CCC(N)=O)NC(=O)[C@@H]2CC[C@@H]3CCN(C(=O)CCCCN4CCC5(CC4)COc4c5ccc5c4CN([C@H]4CCC(=O)NC4=O)C5=O)C[C@H](NC(=O)c4cc5cc(C(=O)P(=O)(O)O)ccc5[nH]4)C(=O)N32)c1` [STD 84, (2-(((5S,8S,10aR)-8-(((S)-5-amino-1-(3-(methylsulfonyl)phenoxy)-5-oxopentan-2-yl)carbamoyl)-3-(5-(7-((S)-2,6-dioxopiperidin-3-yl)-6-oxo-7,8-dihydro-2H,6H-spiro[furo[2,3-e]isoindole-3,4′-piperidin]-1′-yl)pentanoyl)-6-oxodecahydropyrrolo[1,2-a] [1,5]diazocin-5-yl)carbamoyl)-1H-indole-5-carbonyl)phosphonic acid], the IC50 with MOLM-16 lay within 0.1 to 1 µM. At STAT3, this compound registered a DC50 of 0.1 to 1 µM and a Dmax of no less than 80%. Moreover, the IC50 in the experiment on SU-DHL-1 was 1 to 10 µM.
In the case of `CCS(=O)(=O)c1ccc(CNC(=O)[C@H](CCC(N)=O)NC(=O)[C@@H]2CC[C@@H]3CCN(C(=O)CCCCN4CCC5(CC4)COc4c5ccc5c4CN([C@H]4CCC(=O)NC4=O)C5=O)C[C@H](NC(=O)c4cc5cc(C(=O)P(=O)(O)O)ccc5[nH]4)C(=O)N32)cc1` [STD 85, (2-(((5S,8S,10aR)-8-(((S)-5-amino-1-((4-(ethylsulfonyl)benzyl)amino)-1,5-dioxopentan-2-yl)carbamoyl)-3-(5-(7-((S)-2,6-dioxopiperidin-3-yl)-6-oxo-7,8-dihydro-2H,6H-spiro[furo[2,3-e]isoindole-3,4′-piperidin]-1′-yl)pentanoyl)-6-oxodecahydropyrrolo[1,2-a] [1,5]diazocin-5-yl)carbamoyl)-1H-indole-5-carbonyl)phosphonic acid], the IC50 with MOLM-16 lay within 0.1 to 1 µM. In addition, on STAT3, the DC50 was in the range of 0.1 to 1 µM and the Dmax is no less than 80%. The same compound registered an IC50 in the experiment with SU-DHL-1 of 1 to 10 µM.
